Results reported in the NIST ThermoML archive (doi:10.1016/j.jct.2015.03.001).
Numbers after ± are expanded uncertainties.

Legend:
[1] = refractive index (Na D-line) (dimensionless); xn = mol fraction of the nth substance listed; settings: 99 kPa, Liquid, Abbe refractometer
[2] = relative permittivity at various frequencies (dimensionless); xn = mol fraction of the nth substance listed; settings: 99 kPa, Liquid, Frequency=2 MHz, Parallel plate capacitor

CC(C)(C)Cl [2-chloro-2-methylpropane] + CCCCCC
Settings	refractive index, 283.15 K	refractive index, 298.15 K	refractive index, 313.15 K	relative permittivity, 283.15 K	relative permittivity, 298.15 K	relative permittivity, 313.15 K
[1], x2 = 0	1.39115 ± 0.00031	1.38225 ± 0.00031	1.37312 ± 0.00031	–	–	–
[1], x2 = 0.048	1.39005 ± 0.00031	1.38118 ± 0.00031	1.37209 ± 0.00031	–	–	–
[1], x2 = 0.0978	1.38908 ± 0.00031	1.38022 ± 0.00031	1.37118 ± 0.00031	–	–	–
[1], x2 = 0.1998	1.38741 ± 0.00031	1.3786 ± 0.00031	1.36961 ± 0.00031	–	–	–
[1], x2 = 0.3018	1.38592 ± 0.00031	1.37722 ± 0.00031	1.36829 ± 0.00031	–	–	–
[1], x2 = 0.405	1.38463 ± 0.00031	1.37598 ± 0.00031	1.36716 ± 0.00031	–	–	–
[1], x2 = 0.5059	1.38354 ± 0.00031	1.37491 ± 0.00031	1.36616 ± 0.00031	–	–	–
[1], x2 = 0.6043	1.38258 ± 0.00031	1.37407 ± 0.00031	1.3654 ± 0.00031	–	–	–
[1], x2 = 0.7077	1.38181 ± 0.00031	1.37335 ± 0.00031	1.36477 ± 0.00031	–	–	–
[1], x2 = 0.806	1.38122 ± 0.00031	1.37282 ± 0.00031	1.36433 ± 0.00031	–	–	–
[1], x2 = 0.9095	1.38081 ± 0.00031	1.37249 ± 0.00031	1.36409 ± 0.00031	–	–	–
[1], x2 = 0.95	1.38066 ± 0.00031	1.37236 ± 0.00031	1.36401 ± 0.00031	–	–	–
[2], x2 = 0	–	–	–	10.429 ± 0.1	9.67 ± 0.097	8.952 ± 0.09
[2], x2 = 0.0467	–	–	–	9.841 ± 0.098	9.132 ± 0.091	8.468 ± 0.085
[2], x2 = 0.099	–	–	–	9.191 ± 0.092	8.543 ± 0.085	7.946 ± 0.079
[2], x2 = 0.2084	–	–	–	7.892 ± 0.079	7.37 ± 0.074	6.883 ± 0.069
[2], x2 = 0.2972	–	–	–	6.892 ± 0.069	6.468 ± 0.065	6.073 ± 0.061
[2], x2 = 0.399	–	–	–	5.897 ± 0.059	5.552 ± 0.056	5.239 ± 0.052
[2], x2 = 0.4982	–	–	–	5.016 ± 0.05	4.749 ± 0.048	4.514 ± 0.045
[2], x2 = 0.6015	–	–	–	4.212 ± 0.042	4.01 ± 0.04	3.842 ± 0.038
[2], x2 = 0.7009	–	–	–	3.543 ± 0.035	3.398 ± 0.034	3.283 ± 0.033
[2], x2 = 0.8046	–	–	–	2.928 ± 0.029	2.833 ± 0.028	2.749 ± 0.028
[2], x2 = 0.8999	–	–	–	2.417 ± 0.024	2.362 ± 0.024	2.308 ± 0.023
[2], x2 = 0.9502	–	–	–	2.149 ± 0.022	2.116 ± 0.021	2.08 ± 0.021
